What follows are molecules tested on CXCL10 production (assay: CXCL10 production inhibition test). Conditions: Endothelial cell; test compound 0.1 μmol/L; human umbilical vein-derived endothelial cells; TNFα 10 ng/mL; supernatant 72 hours after stimulation; ELISA; read-out: Rate of inhibition of CXCL10 production.
Type: cell-based
Method: (CXCL10 Production Inhibition Test)
0.5×10^4 or 1×10^4 human umbilical vein-derived endothelial cells were suspended in 100 μL of an EGM-2 BulletKit medium (without GA) or a Medium-200 medium supplemented with an EGM-2 SingleQuots kit (without GA), inoculated to a 96-well plate and cultured overnight. 100 μL of a solution of each test compound diluted with the same medium as that used in the inoculation was added to the cultured cells (final concentration of the test compound: 0.1 μmol/L). 1 hour thereafter, TNFα was added thereto at a final concentration of 10 ng/mL. 72 hours after the stimulation, the supernatant was recovered, and the amount of CXCL10 produced in the culture supernatant was determined using an ELISA kit (Peprotech, 900-109).
The rate of inhibition was calculated according to the following expression: Rate of inhibition (%)=100−(Amount of CXCL10 produced in the presence of the test compound/Amount of CXCL10 produced in the absence of the test compound)×100

SMILES	inhibition at 0.1 µM [%]
CCn1c(=O)cc(C2CC2)c2cc(N(C)C(=O)c3ccccc3)ccc21 [Example 2, N-(4-cyclopropyl-1-ethyl-2-oxo-1,2-dihydroquinolin-6-yl)-N-methylbenzamide]	≥ 50
CCn1c(=O)cc(N2CCOCC2)c2cc(-n3c(-c4ccccc4)c[nH]c3=O)ccc21 [Example 3, 1-ethyl-4-(morpholin-4-yl)-6-(2-oxo-5-phenyl-2,3-dihydro-1H-imidazol-1-yl)quinolin-2(1H)-one]	≥ 50
CCN1CCC(c2cc(=O)n(CC)c3ccc(C(=O)N(C)c4ccccc4)cc23)CC1 [Example 8, 1-ethyl-4-(1-ethylpiperidin-4-yl)-N-methyl-2-oxo-N-phenyl-1,2-dihydroquinoline-6-carboxamide]	≥ 50
CCn1c(=O)cc(C2CCN(C)CC2)c2cc(C(=O)N3CCCc4ccccc43)ccc21 [Example 11, 6-(3,4-dihydroquinolin-1(2H)-ylcarbonyl)-1-ethyl-4-(1-methylpiperidin-4-yl)quinolin-2(1H)-one]	≥ 50
CCn1c(=O)cc(C2CCN(C)CC2)c2cc(C(=O)N(C)c3ccc(C)cc3)ccc21 [Example 14, 1-ethyl-N-methyl-N-(4-methylphenyl)-4-(1-methylpiperidin-4-yl)-2-oxo-1,2-dihydroquinoline-6-carboxamide]	≥ 50
CCn1c(=O)cc(C(C)C)c2cc(N(C)C(=O)c3ccc(Cl)cc3)ccc21 [Example 16, 4-chloro-N-(1-ethyl-2-oxo-4-(propan-2-yl)-1,2-dihydroquinolin-6-yl)-N-methylbenzamide]	≥ 50
CCn1c(=O)cc(C2CCN(C)CC2)c2cc(C(=O)N(C)c3ccc4c(c3)CCC4)ccc21 [Example 17, N-(2,3-dihydro-1H-inden-5-yl)-1-ethyl-N-methyl-4-(1-methylpiperidin-4-yl)-2-oxo-1,2-dihydroquinoline-6-carboxamide]	≥ 50
CCn1c(=O)cc(N2CCOCC2)c2cc(-n3c(-c4ccc(Cl)cc4)c[nH]c3=O)ccc21 [Example 245, 6-(5-(4-chlorophenyl)-2-oxo-2,3-dihydro-1H-imidazol-1-yl)-1-ethyl-4-(morpholin-4-yl)quinolin-2(1H)-one]	≥ 50
CCn1c(=O)cc(N2CCOCC2)c2cc(-n3c(-c4ccc(Cl)cc4)cn(C)c3=O)ccc21 [Example 246, 6-(5-(4-chlorophenyl)-3-methyl-2-oxo-2,3-dihydro-1H-imidazol-1-yl)-1-ethyl-4-(morpholin-4-yl)quinolin-2(1H)-one]	≥ 50
CCn1c(=O)cc(N2CCOCC2)c2cc(-n3c(-c4ccccc4)cn(C(C)C)c3=O)ccc21 [Example 247, 1-ethyl-4-(morpholin-4-yl)-6-(2-oxo-5-phenyl-3-(propan-2-yl)-2,3-dihydro-1H-imidazol-1-yl)quinolin-2(1H)-one]	≥ 50
CCn1c(=O)cc(C2CC2)c2cc(-n3c(=O)[nH]c(=O)n3-c3ccccc3)ccc21 [Example 248, 1-(4-cyclopropyl-1-ethyl-2-oxo-1,2-dihydroquinolin-6-yl)-2-phenyl-1,2,4-triazolidine-3,5-dione]	≥ 50
CCn1c(=O)cc(N2CCOCC2)c2cc(N(C)C(=O)c3ccc(Cl)cc3)ccc21 [Example 250, 4-chloro-N-(1-ethyl-4-(morpholin-4-yl)-2-oxo-1,2-dihydroquinolin-6-yl)-N-methylbenzamide]	≥ 50
CCn1c(=O)cc(C2CC2)c2cc(-c3nc(C)nn3-c3ccccc3)ccc21 [Example 252]	≥ 50
CCn1c(=O)cc(N2CCOCC2)c2cc(N3C(=O)CC[C@H]3c3ccccc3)ccc21 [Example 253, 1-ethyl-4-(morpholin-4-yl)-6-((5S)-2-oxo-5-phenylpyrrolidin-1-yl)quinolin-2(1H)-one]	≥ 50
CCn1c(=O)cc(C2CC2)c2cc(N3C(=O)CC[C@H]3c3ccccc3)ccc21 [Example 254, 4-cyclopropyl-1-ethyl-6-((5S)-2-oxo-5-phenylpyrrolidin-1-yl)quinolin-2(1H)-one]	≥ 50

— patent publication US10696637B2, “Nitrogen-containing heterocyclic compound” (FUJIFILM Corporation, priority 2015, dated 2020)
